# Experimental data from US20050207984A1, “Formoterol and ciclesonide aerosol formulations” (priority 2002, published 2005).
# Test: Chemical stability, ciclesonide related impurities by HPLC
# Assay type: physicochemical
# Conditions: 5 days at 50° C.
# Protocol: MDI units from Example 2 were stored for 5 days at 50° C. in both valve-up and valve-down orientations (two units at each orientation). The samples were then tested for ciclesonide related impurities by High Performance Liquid Chromatography and the following results were obtained: […]
smiles,measurement,value
"CC(C)C(=O)OCC(=O)[C@@]12O[C@H](C3CCCCC3)O[C@@H]1C[C@H]1[C@@H]3CCC4=CC(=O)C=C[C@]4(C)[C@H]3[C@@H](O)C[C@@]12C [ciclesonide, 11β, 16α, 17, 21-tetrahydroxypregna 1,4-diene-3,20-dione, cyclic 16,17-acetal with cyclohexanecarboxaldehyde, 21-isobutyrate]",chemical stability in the example formulation,high degree of chemical stability
